# Columns and labels:
# acid ceramidase (hACR) = target: T1, acid ceramidase (hACR) (Homo sapiens, UniProt Q13510); assay: Acid ceramidase inhibition, biochemical fluorescent assay with cell lysates overexpressing acid ceramidase (substrate Rbm14-12); settings: cell lysate, 1 hr preincubation at RT, pH 4.5, Rbm14-12 6.3 μM; read-out: IC50 hACR
# T1 construct: expressed in transfected cells
# T1 sequence (Q13510 22-395): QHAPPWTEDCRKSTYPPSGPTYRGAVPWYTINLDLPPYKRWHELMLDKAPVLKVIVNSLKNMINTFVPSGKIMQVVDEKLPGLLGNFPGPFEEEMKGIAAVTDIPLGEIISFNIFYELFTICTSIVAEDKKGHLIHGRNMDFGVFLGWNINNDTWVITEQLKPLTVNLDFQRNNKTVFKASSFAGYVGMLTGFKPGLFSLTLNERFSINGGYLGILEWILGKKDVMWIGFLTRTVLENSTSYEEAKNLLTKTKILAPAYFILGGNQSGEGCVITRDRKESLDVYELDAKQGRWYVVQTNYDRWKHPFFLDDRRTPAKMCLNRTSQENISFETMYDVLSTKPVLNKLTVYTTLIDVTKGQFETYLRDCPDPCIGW
# Procedure: The ability of exemplary compounds to inhibit acid ceramidase was measured.
# Cell lysates overexpressing acid ceramidase were used as the enzyme source for compound potency determination in a biochemical fluorescent assay. Briefly, compounds were preincubated with 10 μg protein of cell lysates in a dose-response manner for 1 hr at RT in the assay buffer containing 25 mM NaAC and 100 mM NaCl, pH 4.5. […] The samples were incubated with the stopping buffer at RT for 1 hr to allow the fluorescent product to be formed. […] Data were collected and used to determine the IC50 values of compounds by curve fitting to the four-parameter inhibition equation.
# [1] = Compound solubility in water; format: physicochemical
IC50 (acid ceramidase (hACR)) [nM],solubility [1] [µg/mL],SMILES
200 to 1000,35.3,"CC(C)CCNC(=O)n1cnc(-c2ccccc2C2CCN(C)CC2)c1 [Example 38, N-iso-Pentyl-4-(2-(1-methylpiperidin-4-yl)phenyl)-1H-imidazole-1-carboxamide]"
200 to 1000,21.7,"CC(C)CCNC(=O)n1cnc(CC2CCN(C)CC2)c1 [Example 56, N-iso-Pentyl-4-((1-methylpiperidin-4-yl)methyl)-1H-imidazole-1-carboxamide]"
200 to 1000,23,"COc1nc(C2CCOC2)cn1C(=O)NCCCCC1CC1 (stereo not shown) [Example 131, N-(4-Cyclopropylbutyl)-2-methoxy-4-(tetrahydrofuran-3-yl)-1H-imidazole-1-carboxamide]"
200 to 1000,17,"COc1nc(C(C)(C)C)cn1C(=O)NCCC1(C(F)(F)F)CC1 [Example 90, 4-(tert-Butyl)-2-methoxy-N-(2-(1-(trifluoromethyl)cyclopropyl)ethyl)-1H-imidazole-1-carboxamide]"
< 200,27,"COc1nccn1C(=O)NCCCCC1(C(F)(F)F)CC1 [Example 138, 2-Methoxy-N-(4-(1-(trifluoromethyl)cyclopropyl)butyl)-1H-imidazole-1-carboxamide]"
> 1000,24.1,"CCOc1nc(-c2ccccn2)cn1C(=O)NCCC1CC1 [Example 63, N-(2-Cyclopropylethyl)-2-ethoxy-4-(pyridin-2-yl)-1H-imidazole-1-carboxamide]"
< 200,23,"COc1nc(C)cn1C(=O)NCCCCc1ccccc1 [Example 156, 2-Methoxy-4-methyl-N-(4-phenylbutyl)-1H-imidazole-1-carboxamide]"
200 to 1000,17,"Cc1cn(C(=O)NC2CCC(F)(F)CC2)c(Oc2cccc(C3CN(C)C3)c2)n1 [Example 162, N-(4,4-Difluorocyclohexyl)-4-methyl-2-(3-(1-methylazetidin-3-yl)phenoxy)-1H-imidazole-1-carboxamide]"
200 to 1000,12,"CCOc1nc(C(C)(C)C)cn1C(=O)NCCC1CC1 [Example 92, 4-(tert-Butyl)-N-(2-cyclopropylethyl)-2-ethoxy-1H-imidazole-1-carboxamide]"
> 1000,45,"COc1nc(-c2cccnc2N2CCN(C)CC2)cn1C(=O)NCC#CC(C)C [Example 194, 2-Methoxy-N-(4-methylpent-2-yn-1-yl)-4-(2-(4-methylpiperazin-1-yl)pyridin-3-yl)-1H-imidazole-1-carboxamide]"
> 1000,6,"COc1nc(C2CCCC2)cn1C(=O)NC1CCCCC1 [Example 106, N-Cyclohexyl-4-cyclopentyl-2-methoxy-1H-imidazole-1-carboxamide]"
> 1000,32,"COc1nc(C2CCOC2)cn1C(=O)NC1CCCCC1 (stereo not shown) [Example 108, N-Cyclohexyl-2-methoxy-4-(tetrahydrofuran-3-yl)-1H-imidazole-1-carboxamide]"
200 to 1000,0.4,"CC(C)CCNC(=O)n1cc(C(C)(C)C)nc1Oc1ccccc1F [Example 115, 4-tert-Butyl-2-(2-fluorophenoxy)-N-iso-pentyl-1H-imidazole-1-carboxamide]"
200 to 1000,23,CSc1nc(-c2cccnc2)cn1C(=O)NCCC1CC1 [Example 67a]
200 to 1000,13.8,"CC(C)CCNC(=O)n1cnc(-c2ccccn2)c1 [Example 46, N-iso-Pentyl-4-(pyridin-2-yl)-1H-imidazole-1-carboxamide]"
< 200,22,"COc1ccc(-c2cn(C(=O)NCCC3(C(F)(F)F)CC3)cn2)cn1 [Example 71, 4-(6-Methoxypyridin-3-yl)-N-(2-(1-(trifluoromethyl)cyclopropyl)ethyl)-1H-imidazole-1-carboxamide]"
> 1000,16.8,"CCOc1nc(-c2cccnc2)cn1C(=O)NCCC1CC1 [Example 64, N-(2-Cyclopropylethyl)-2-ethoxy-4-(pyridin-3-yl)-1H-imidazole-1-carboxamide]"
< 200,12,"COc1nc(C(C)(C)C)cn1C(=O)NCCCC1CC1 [Example 95, 4-(tert-Butyl)-N-(3-cyclopropylpropyl)-2-methoxy-1H-imidazole-1-carboxamide]"
> 1000,25,"COc1nc(C2CCCO2)cn1C(=O)NCCC(C)C (stereo not shown) [Example 84, N-iso-pentyl-2-methoxy-4-(tetrahydrofuran-2-yl)-1H-imidazole-1-carboxamide]"

IC50 (acid ceramidase (hACR)) [nM],solubility [1] [µg/mL],SMILES
< 200,16.1,"CC(CNC(=O)n1cnc(-c2cccnc2)c1)Cc1ccccc1 (stereo not shown) [Example 15, N-(2-Methyl-3-phenylpropyl)-4-(pyridin-3-yl)-1H-imidazole-1-carboxamide]"
200 to 1000,8,"COc1nc(C(C)(C)C)cn1C(=O)NC1CCCCC1 [Example 93, 4-(tert-Butyl)-N-cyclohexyl-2-methoxy-1H-imidazole-1-carboxamide]"
< 200,31,"CN1CCC(c2cn(C(=O)NCCC#Cc3ccccc3)cn2)CC1 [Example 204, 4-(1-Methylpiperidin-4-yl)-N-(4-phenylbut-3-yn-1-yl)-1H-imidazole-1-carboxamide]"
< 200,3.4,"O=C(NCCc1ccccc1)n1cnc(-c2ccc(F)nc2)c1 [Example 30, 4-(6-Fluoropyridin-3-yl)-N-phenethyl-1N-imidazole-1-carboxamide]"
< 200,5.2,"CC(C)(C)c1cn(C(=O)NCCc2ccccc2)cn1 [Example 3, 4-tert-Butyl-N-phenethyl-1H-imidazole-1-carboxamide]"
200 to 1000,2.9,"COc1ccc(-c2cn(C(=O)NCCC(C)C)cn2)cn1 [Example 36, N-iso-Pentyl-4-(6-methoxypyridin-3-yl)-1H-imidazole-1-carboxamide]"
< 200,16,"COc1nccn1C(=O)NCCCC(C)C [Example 123, 2-Methoxy-N-(4-methylpentyl)-1H-imidazole-1-carboxamide]"
200 to 1000,23,"O=C(NCCC1CC1)n1cnc(-c2cccnc2)c1 [Example 22, N-(2-Cyclopropylethyl)-4-(pyridin-3-yl)-1H-imidazole-1-carboxamide]"
200 to 1000,23,"CCOc1nccn1C(=O)NCCC(C)C [Example 121, 2-Ethoxy-N-iso-pentyl-1H-imidazole-1-carboxamide]"
200 to 1000,0.2,"CC(C)(C)c1cn(C(=O)NCCc2cccnc2)cn1 [Example 20, 4-tert-Butyl-N-(2-(pyridin-3-yl)ethyl)-1H-imidazole-1-carboxamide]"
< 200,24,"Cc1cn(C(=O)NCCCC(F)(F)F)c(Oc2ccccc2)n1 [Example 171, 4-Methyl-2-phenoxy-N-(4,4,4-trifluorobutyl)-1H-imidazole-1-carboxamide]"
200 to 1000,15.1,"COc1nc(C(C)(C)C)cn1C(=O)NC(C)CC(C)C (stereo not shown) [Example 58, 4-(tert-Butyl)-2-methoxy-N-(4-methylpentan-2-yl)-1H-imidazole-1-carboxamide]"
< 200,30,"Cc1cn(C(=O)NCc2ccc(-c3ccccc3)cc2)c(OCCN2CCN(C)CC2)n1 [Example 203, N-(Biphenyl-4-ylmethyl)-4-methyl-2-(2-(4-methylpiperazin-1-yl)ethoxy)-1H-imidazole-1-carboxamide]"
200 to 1000,36,"CN1CCC(Oc2nc(Cl)cn2C(=O)NCCCC(F)(F)F)CC1 [Example 188, 4-Chloro-2-((1-methylpiperidin-4-yl)oxy)-N-(4,4,4-trifluorobutyl)-1H-imidazole-1-carboxamide]"
< 200,29,"COc1nc(Cl)cn1C(=O)NCCC1CCCC1(F)F (stereo not shown) [Example 185, 4-Chloro-N-(2-(2,2-difluorocyclopentyl)ethyl)-2-methoxy-1H-imidazole-1-carboxamide]"
< 200,1,"CC(C)CCNC(=O)n1cc(C(C)(C)C)nc1Oc1ccc(F)cc1 [Example 116, 4-tert-Butyl-2-(4-fluorophenoxy)-N-iso-pentyl-1H-imidazole-1-carboxamide]"
200 to 1000,1,"COc1nc(-c2ccccc2)cn1C(=O)NC1CCCC(F)(F)C1 (stereo not shown) [Example 158, N-(3,3-Difluorocyclohexyl)-2-methoxy-4-phenyl-1H-imidazole-1-carboxamide]"
< 200,0.2,"CSc1nc(C(C)(C)C)cn1C(=O)NCCC(C)C [Example 80, 4-(tert-Butyl)-N-iso-pentyl-2-(methylthio)-1H-imidazole-1-carboxamide]"
> 1000,15,"COc1nc(C2CCOC2)cn1C(=O)NC1CC1 (stereo not shown) [Example 128, N-Cyclopropyl-2-methoxy-4-(tetrahydrofuran-3-yl)-1H-imidazole-1-carboxamide]"

# Reference: patent US20220411388A1, “SUBSTITUTED IMIDAZOLE CARBOXAMIDES AND THEIR USE IN THE TREATMENT OF MEDICAL DISORDERS” (Bial - R&D Investments, S.A., priority 2019, published 2022)
